Experimental data from patent US20170136008A1, “OXABICYCLOHEPTANES AND OXABICYCLOHEPTENES FOR THE TREATMENT OF OVARIAN CANCER” (priority 2014, published 2017).

What was measured:
[1] = test system: ovarian cancer cell lines; experiment: MTT cytotoxicity assay, ovarian cancer cell line panel; format: cell-based; conditions: Homo sapiens, SK-OV-3; ovarian lines other than SKOV-3
Experimental: (§1) Cell survival was measured by the 3-(4,5-dimethylthiazol-2-yl)-2,5-diphenyltetrazolium bromide (MTT, Invitrogen) assay. Cells were seeded at a density of 5,000 cells per well in 96-well plates and incubated at 37° C. in humidified 5% CO2 for 24 hours. The 50% inhibitory concentration (IC50) values were defined as the drug concentrations required to reduce cellular proliferation to 50% of the untreated control well. […] All MTT assays were carried out according to the manufacturer's instructions (Molecular Probes, Eugen, Oreg.). Absorbance values were determined at […] on a Spectra Max 250 spectrophotometer (Molecular Devices, Sunnyvale, Calif.). All MTT assays were performed in triplicate. […] Cells were treated with both drugs for 72 h. Cell viability was analyzed via the MTT assay as described above. Experiments were performed in triplicate, and the data are presented as a percent mean±SD.
SKOV-3 and OVCAR-8 cells have previously been described as p53 null and harboring an inactivating p53 mutation, respectively (Debernardis, D. et al. 1997). […] The […] carry a BRCA2 missense (n) and STOP (s) mutation, respectively (Langdon, S. P. et al. 1988).

[2] = test system: OVCAR-8 PP2Ac shRNA-expressing cells; experiment: Cell viability (MTT) assay, OVCAR-8 PP2Ac shRNA; format: cell-based, human; conditions: Homo sapiens; OVCAR-8 PP2Ac shRNA (knockdown)
Experimental: as §1
To stably knockdown expression of PP2AC, a pLKO.1-puro plasmid-based […] shRNA targeting the sequence: […] (clone ID:TRCN0000002483, Sigma-Aldrich) was employed (PP2AC-shRNA). Additionally, a non-targeting shRNA plasmid (NT-shRNA) that targets no known human sequence was utilized as a control. […]

[3] = test system: PEO1-Missense (PEO-1m) ovarian cancer cell line; experiment: MTT cytotoxicity assay, PEO1-Missense; format: cell-based, human; conditions: Homo sapiens, read-out: IC50, viability of ovarian cancer cell line
Experimental: SKOV-3 ovarian cancer cells were purchased from American Type Culture Collection (ATCC) (Manassas, Va.). SKOV-3 cells were cultured in McCoy's 5A medium (ATCC, Manassas, Va.) supplemented with 10% fetal bovine serum and 100 units/mL penicillin G sodium, 100 ug/mL streptomycin sulfate, and 292 μg/ml, L-glutamine (BioWhittaker, Wakersville, Md.). Luciferase-expressing cells were generated by infecting SKOV-3 cells with pCLNCX-luciferase retrovirus (SKOV-3-Luc) as previously reported (Wei, B. R. et al. 2009). Human OVCAR-8 ovarian cancer cells were provided by the National Cancer Institute (part of the NCI-60 collection). The PEO1, PEO4, and PEO6 ovarian cancer cell lines have previously been characterized (Langdon, S. P. et al. 1988) and were kindly provided by Dr. Ian Goldlust (National Center for Advancing Translational Sciences, Shady Grove, Md.). […]
Cell survival was measured by the 3-(4,5-dimethylthiazol-2-yl)-2,5-diphenyltetrazolium bromide (MTT, Invitrogen) assay. […] Absorbance values were determined at […] on a Spectra Max 250 spectrophotometer (Molecular Devices, Sunnyvale, Calif.). […] Cell viability was analyzed via the MTT assay as described above. […]

CN1CCN(C(=O)C2C(C(=O)O)[C@H]3CC[C@@H]2O3)CC1 (stereo partly drawn) [LB100]
IC50 [1]: 5.7 µM | IC50 [2]: 3.9 ± 0.9 µM | IC50 [3]: 6.2 ± 1.5 µM
